Data published in article PMC5941067, “Novel Xanthomonas campestris Long-Chain-Specific 3-Oxoacyl-Acyl Carrier Protein Reductase Involved in Diffusible Signal Factor Synthesis” (mBio, 2018).

Experiments:
FabG1 (XCC1018) = biological target: T1, FabG1 (XCC1018) (Xanthomonas campestris, UniProt Q8PBU9); test: NADPH absorbance decrease at […] nm; format: biochemical; settings: hydride donor; 3-oxodecanoyl-ACP generated in situ by E. coli FabD and FabB from acyl-ACP and malonyl-CoA
T1 construct: gene fabG; full length, pET-28(b) construct (His tag), E. coli BL21(DE3)
T1 sequence (Q8PBU9 entry or part of it): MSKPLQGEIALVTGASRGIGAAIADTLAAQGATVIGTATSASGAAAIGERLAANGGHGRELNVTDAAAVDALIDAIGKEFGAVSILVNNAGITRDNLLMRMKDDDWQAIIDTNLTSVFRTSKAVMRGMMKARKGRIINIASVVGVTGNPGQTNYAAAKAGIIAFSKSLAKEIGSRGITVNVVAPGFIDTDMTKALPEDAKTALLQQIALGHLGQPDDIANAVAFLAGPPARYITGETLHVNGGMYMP

[1] = biological target: T2, X. campestris pv. campestris FabH (Xanthomonas campestris, UniProt Q8PBV1); test: coupled reaction, MALDI-TOF MS of acyl-ACP products; format: biochemical; settings: co-substrate malonyl-ACP; with FabG1 or FabG2 and E. coli FabA
T2 construct: purification and tag of this protein not described in the main text
T2 sequence (Q8PBV1 whole entry): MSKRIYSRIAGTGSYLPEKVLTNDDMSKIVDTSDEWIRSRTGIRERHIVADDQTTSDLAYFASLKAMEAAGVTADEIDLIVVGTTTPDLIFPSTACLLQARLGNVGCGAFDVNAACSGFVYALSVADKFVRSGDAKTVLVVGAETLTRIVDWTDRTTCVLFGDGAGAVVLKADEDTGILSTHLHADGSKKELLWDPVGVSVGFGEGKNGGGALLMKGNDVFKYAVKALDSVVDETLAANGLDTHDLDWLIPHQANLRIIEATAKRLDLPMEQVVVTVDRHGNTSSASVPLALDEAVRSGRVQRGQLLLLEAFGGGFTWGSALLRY

SMILES | NADPH absorbance decrease at 340 nm (FabG1 (XCC1018)) | coupled reaction, MALDI-TOF MS of acyl-ACP products [1]
NC(=O)C1=CN([C@@H]2O[C@H](COP(=O)(O)OP(=O)(O)OC[C@H]3O[C@@H](n4cnc5c(N)ncnc54)[C@H](OP(=O)(O)O)[C@@H]3O)[C@@H](O)[C@H]2O)C=CC1 [NADPH] | The maximal rate of NADPH reduction of 3-oxodecanoyl-ACP by FabG2 | 
CCCCCCCC(=O)SCCNC(=O)CCNC(=O)[C@H](O)C(C)(C)COP(=O)(O)OP(=O)(O)OC[C@H]1O[C@@H](n2cnc3c(N)ncnc32)[C@H](O)[C@@H]1OP(=O)(O)O [octanoyl-CoA] |  | X. campestris pv. campestris FabH, octanoyl-CoA, and malonyl-ACP replaced octanoyl-ACP
